Data: publication PMC10536065 (ACS Omega, 2023)
“Also recorded” adds a separate entry of the source.

Experiments:
[1] = target: T1, Type I collagen (Bos taurus, UniProt P02453+P02465); assay: ELISA saturation binding to collagen; parameters: species or system bovine
[2] = target: T1, Type I collagen; assay: Inhibition of cCBD-LL37 binding to collagen by cCBD; parameters: species or system bovine; settings: 500 nM cCBD-LL37 with 0–500 nM cCBD, 1 h room temperature; n = 4
[3] = Circular dichroism spectroscopy; type: physicochemical; settings: NaCl, MgCl2, CaCl2; 10 μM peptide

T1 sequence (P02453 162-1217 limits assumed): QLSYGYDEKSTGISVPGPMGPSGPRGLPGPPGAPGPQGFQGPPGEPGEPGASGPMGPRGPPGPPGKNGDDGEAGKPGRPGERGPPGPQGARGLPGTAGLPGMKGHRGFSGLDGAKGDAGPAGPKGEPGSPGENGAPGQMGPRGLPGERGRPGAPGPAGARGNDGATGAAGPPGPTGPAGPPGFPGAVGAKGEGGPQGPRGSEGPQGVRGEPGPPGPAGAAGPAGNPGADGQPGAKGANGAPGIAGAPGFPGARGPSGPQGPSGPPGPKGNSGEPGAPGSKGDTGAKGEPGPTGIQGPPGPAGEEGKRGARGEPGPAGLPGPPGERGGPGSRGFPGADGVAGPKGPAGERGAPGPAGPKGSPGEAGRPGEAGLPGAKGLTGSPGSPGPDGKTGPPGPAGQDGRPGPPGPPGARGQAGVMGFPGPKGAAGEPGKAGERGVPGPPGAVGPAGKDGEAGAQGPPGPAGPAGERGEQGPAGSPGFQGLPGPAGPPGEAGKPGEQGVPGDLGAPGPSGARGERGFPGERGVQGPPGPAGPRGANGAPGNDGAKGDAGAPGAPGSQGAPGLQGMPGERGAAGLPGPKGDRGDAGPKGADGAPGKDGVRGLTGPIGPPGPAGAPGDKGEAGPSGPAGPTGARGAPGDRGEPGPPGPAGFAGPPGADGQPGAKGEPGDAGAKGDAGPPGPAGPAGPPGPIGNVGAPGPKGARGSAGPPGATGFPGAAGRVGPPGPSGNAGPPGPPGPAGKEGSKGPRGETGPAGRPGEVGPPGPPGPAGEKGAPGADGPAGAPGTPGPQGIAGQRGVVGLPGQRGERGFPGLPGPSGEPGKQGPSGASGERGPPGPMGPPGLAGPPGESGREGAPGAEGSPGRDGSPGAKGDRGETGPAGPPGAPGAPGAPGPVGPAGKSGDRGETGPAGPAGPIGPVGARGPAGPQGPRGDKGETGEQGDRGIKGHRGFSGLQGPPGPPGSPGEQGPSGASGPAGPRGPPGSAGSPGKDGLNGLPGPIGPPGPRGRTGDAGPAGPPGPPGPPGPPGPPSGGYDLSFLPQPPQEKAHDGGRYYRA
T1 sequence (P02465 80-1117 limits assumed): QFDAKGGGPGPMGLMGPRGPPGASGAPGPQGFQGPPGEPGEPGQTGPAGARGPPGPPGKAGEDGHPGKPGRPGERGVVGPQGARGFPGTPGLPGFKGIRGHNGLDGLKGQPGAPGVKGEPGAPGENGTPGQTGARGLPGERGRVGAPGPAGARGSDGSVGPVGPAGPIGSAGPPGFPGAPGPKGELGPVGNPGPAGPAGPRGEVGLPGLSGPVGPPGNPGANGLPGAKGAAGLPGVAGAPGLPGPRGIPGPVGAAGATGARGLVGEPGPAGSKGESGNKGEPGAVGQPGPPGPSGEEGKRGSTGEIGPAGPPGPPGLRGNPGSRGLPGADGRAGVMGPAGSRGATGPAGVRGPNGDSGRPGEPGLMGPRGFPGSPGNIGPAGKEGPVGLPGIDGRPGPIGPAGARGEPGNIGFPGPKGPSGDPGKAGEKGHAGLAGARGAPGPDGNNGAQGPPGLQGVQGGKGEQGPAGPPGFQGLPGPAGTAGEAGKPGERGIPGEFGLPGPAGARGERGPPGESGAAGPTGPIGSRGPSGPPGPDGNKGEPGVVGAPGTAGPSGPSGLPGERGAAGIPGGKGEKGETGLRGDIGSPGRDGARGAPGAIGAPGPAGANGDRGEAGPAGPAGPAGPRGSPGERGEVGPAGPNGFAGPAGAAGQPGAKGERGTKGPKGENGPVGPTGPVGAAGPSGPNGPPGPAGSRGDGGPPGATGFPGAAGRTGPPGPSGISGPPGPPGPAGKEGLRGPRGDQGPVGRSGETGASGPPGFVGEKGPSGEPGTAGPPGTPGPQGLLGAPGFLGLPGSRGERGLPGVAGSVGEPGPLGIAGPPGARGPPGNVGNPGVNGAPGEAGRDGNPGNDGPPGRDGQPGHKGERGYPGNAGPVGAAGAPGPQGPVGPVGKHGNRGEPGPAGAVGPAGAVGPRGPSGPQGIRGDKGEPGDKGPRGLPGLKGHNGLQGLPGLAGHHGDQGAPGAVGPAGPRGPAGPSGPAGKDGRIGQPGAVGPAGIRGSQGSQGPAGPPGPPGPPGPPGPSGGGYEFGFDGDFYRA

## CC[C@H](C)[C@H](NC(=O)[C@H](CCCCN)NC(=O)[C@H](CCC(=O)O)NC(=O)[C@H](CCCCN)NC(=O)[C@H](CO)NC(=O)[C@H](CCCCN)NC(=O)[C@H](CCCNC(=N)N)NC(=O)[C@H](Cc1ccccc1)NC(=O)[C@H](Cc1ccccc1)NC(=O)[C@H](CC(=O)O)NC(=O)CNC(=O)[C@H](CC(C)C)NC(=O)[C@@H](N)CC(C)C)C(=O)NCC(=O)N[C@@H](CCCCN)C(=O)N[C@@H](CCC(=O)O)C(=O)N[C@@H](Cc1ccccc1)C(=O)N[C@@H](CCCCN)C(=O)N[C@@H](CCCNC(=N)N)C(=O)N[C@H](C(=O)N[C@H](C(=O)N[C@@H](CCC(N)=O)C(=O)N[C@@H](CCCNC(=N)N)C(=O)N[C@H](C(=O)N[C@@H](CCCCN)C(=O)N[C@@H](CC(=O)O)C(=O)N[C@@H](Cc1ccccc1)C(=O)N[C@@H](CC(C)C)C(=O)N[C@@H](CCCNC(=N)N)C(=O)N[C@@H](CC(N)=O)C(=O)N[C@@H](CC(C)C)C(=O)N[C@H](C(=O)N1CCC[C@H]1C(=O)N[C@@H](CCCNC(=N)N)C(=O)N[C@H](C(=O)N[C@@H](CCC(=O)O)C(=O)N[C@@H](CO)C(=O)O)[C@@H](C)O)C(C)C)[C@@H](C)CC)C(C)C)[C@@H](C)CC [LL37, reference compound]
[1]
  Kd: 80 nM

## DYKDDDDKTKKTLRT [cCBD]
[2]
  inhibition of cCBD-LL37 binding to collagen by excess cCBD: significantly (*p < 0.05) inhibited cCBD-LL37 binding to collagen; also recorded: inhibited cCBD-LL37 binding to collagen but did not completely abrogate the binding

## CC[C@H](C)[C@H](NC(=O)[C@H](CCCCN)NC(=O)[C@H](CCC(=O)O)NC(=O)[C@H](CCCCN)NC(=O)[C@H](CO)NC(=O)[C@H](CCCCN)NC(=O)[C@H](CCCNC(=N)N)NC(=O)[C@H](Cc1ccccc1)NC(=O)[C@H](Cc1ccccc1)NC(=O)[C@H](CC(=O)O)NC(=O)CNC(=O)[C@H](CC(C)C)NC(=O)[C@@H](N)CC(C)C)C(=O)NCC(=O)N[C@@H](CCCCN)C(=O)N[C@@H](CCC(=O)O)C(=O)N[C@@H](Cc1ccccc1)C(=O)N[C@@H](CCCCN)C(=O)N[C@@H](CCCNC(=N)N)C(=O)N[C@H](C(=O)N[C@H](C(=O)N[C@@H](CCC(N)=O)C(=O)N[C@@H](CCCNC(=N)N)C(=O)N[C@H](C(=O)N[C@@H](CCCCN)C(=O)N[C@@H](CC(=O)O)C(=O)N[C@@H](Cc1ccccc1)C(=O)N[C@@H](CC(C)C)C(=O)N[C@@H](CCCNC(=N)N)C(=O)N[C@@H](CC(N)=O)C(=O)N[C@@H](CC(C)C)C(=O)N[C@H](C(=O)N1CCC[C@H]1C(=O)N[C@@H](CCCNC(=N)N)C(=O)N[C@H](C(=O)N[C@@H](CCC(=O)O)C(=O)N[C@@H](CO)C(=O)N[C@@H](CC(=O)O)C(=O)N[C@@H](Cc1ccc(O)cc1)C(=O)N[C@@H](CCCCN)C(=O)N[C@@H](CC(=O)O)C(=O)N[C@@H](CC(=O)O)C(=O)N[C@@H](CC(=O)O)C(=O)N[C@@H](CC(=O)O)C(=O)N[C@@H](CCCCN)C(=O)N[C@H](C(=O)N[C@@H](CCCCN)C(=O)N[C@@H](CCCCN)C(=O)N[C@H](C(=O)N[C@@H](CC(C)C)C(=O)N[C@@H](CCCNC(=N)N)C(=O)N[C@H](C(=O)O)[C@@H](C)O)[C@@H](C)O)[C@@H](C)O)[C@@H](C)O)C(C)C)[C@@H](C)CC)C(C)C)[C@@H](C)CC [cCBD-LL37]
[1]
  Kd: 49 nM
[3]
  structural stability at varying ionic strengths compared with LL37: stronger structural stability at varying ionic strengths when compared with LL37
